According to US9987315B2 (priority 2005, dated 2018):

Experiments:
BGMK = format: cell-based, primate
RK-13 = format: cell-based, rabbit
RL5 = format: cell-based, rabbit

Measured: effect of rapamycin on replication of myxoma virus (virus titre by foci formation on BGMK cells)

CO[C@H]1C[C@@H]2CC[C@@H](C)[C@@](O)(O2)C(=O)C(=O)N2CCCC[C@H]2C(=O)O[C@H]([C@H](C)C[C@@H]2CC[C@@H](O)[C@H](OC)C2)CC(=O)[C@H](C)/C=C(\C)[C@@H](O)[C@@H](OC)C(=O)[C@H](C)C[C@H](C)/C=C/C=C/C=C/1C [rapamycin]
no effect: BGMK | RK-13 | RL5
